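In this assay, cells in 96-well plates receive the compound at five concentrations for 48 hours. Endpoints are linearly interpolated between the surrounding concentrations. TGI is the concentration that stops growth completely.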
Tests used:
Test in all cases: NCI-60 cell line screen, 48 h
OVCAR-4 ovarian = tested on: OVCAR-4 ovarian
T-47D breast = tested on: T-47D breast
ACHN renal = tested on: ACHN renal
SN12C renal = tested on: SN12C renal
NCI-H522 lung = tested on: NCI-H522 lung
MDA-MB-231 breast = tested on: MDA-MB-231 breast
U251 CNS = tested on: U251 CNS
NCI-H226 lung = tested on: NCI-H226 lung
HOP-62 NSCLC = tested on: HOP-62 NSCLC
HS 578T breast = tested on: HS 578T breast
OVCAR-5 ovarian = tested on: OVCAR-5 ovarian
HCC-2998 colon = tested on: HCC-2998 colon
SF-295 CNS = tested on: SF-295 CNS
A549 NSCLC = tested on: A549 NSCLC
UACC-62 melanoma = tested on: UACC-62 melanoma
K-562 leukemia = tested on: K-562 leukemia
BT-549 breast = tested on: BT-549 breast
LOX IMVI melanoma = tested on: LOX IMVI melanoma
SR leukemia = tested on: SR leukemia
UO-31 renal = tested on: UO-31 renal
HCT-116 colon = tested on: HCT-116 colon
MOLT-4 leukemia = tested on: MOLT-4 leukemia
HOP-92 NSCLC = tested on: HOP-92 NSCLC
CCRF-CEM leukemia = tested on: CCRF-CEM leukemia
NCI-H23 lung = tested on: NCI-H23 lung
DU-145 prostate = tested on: DU-145 prostate
OVCAR-8 ovarian = tested on: OVCAR-8 ovarian
HCT-15 colon = tested on: HCT-15 colon
SF-268 CNS = tested on: SF-268 CNS
MALME-3M melanoma = tested on: MALME-3M melanoma
COLO 205 colon = tested on: COLO 205 colon
RXF 393 renal = tested on: RXF 393 renal
OVCAR-3 ovarian = tested on: OVCAR-3 ovarian
SK-MEL-28 melanoma = tested on: SK-MEL-28 melanoma
SK-MEL-5 melanoma = tested on: SK-MEL-5 melanoma
IGROV1 ovarian = tested on: IGROV1 ovarian
SF-539 CNS = tested on: SF-539 CNS
HT29 colon = tested on: HT29 colon
PC-3 prostate = tested on: PC-3 prostate
CAKI-1 renal = tested on: CAKI-1 renal
MDA-MB-435 = tested on: MDA-MB-435
MDA-N = tested on: MDA-N
786-0 renal = tested on: 786-0 renal
MCF7 breast = tested on: MCF7 breast
SNB-19 CNS = tested on: SNB-19 CNS
SNB-75 CNS = tested on: SNB-75 CNS
TK-10 renal = tested on: TK-10 renal
NCI/ADR-RES ovarian = tested on: NCI/ADR-RES ovarian
KM12 colon = tested on: KM12 colon
EKVX NSCLC = tested on: EKVX NSCLC
SK-MEL-2 melanoma = tested on: SK-MEL-2 melanoma
SK-OV-3 ovarian = tested on: SK-OV-3 ovarian
HL-60(TB) leukemia = tested on: HL-60(TB) leukemia
A498 renal = tested on: A498 renal
SW-620 colon = tested on: SW-620 colon
NCI-H460 lung = tested on: NCI-H460 lung
M14 melanoma = tested on: M14 melanoma
UACC-257 melanoma = tested on: UACC-257 melanoma

Question: What does the source list for `C#C/C=C\CCCCCCCCCCCCCC/C=C\CCCCC#CC(O)C#CCCCC/C=C\CCCCCC/C=C/C(O)C#C` (stereo not drawn)?
Answer: TGI (OVCAR-4 ovarian): 26.4 µM; TGI (T-47D breast): 26 µM; TGI (ACHN renal): > 75 µM; TGI (SN12C renal): > 75 µM; TGI (NCI-H522 lung): > 16 µM; TGI (MDA-MB-231 breast): > 75 µM; TGI (U251 CNS): > 75 µM; TGI (NCI-H226 lung): > 59.4 µM; TGI (HOP-62 NSCLC): > 75 µM; TGI (HS 578T breast): > 75 µM; TGI (OVCAR-5 ovarian): > 75 µM; TGI (HCC-2998 colon): 37 µM; TGI (SF-295 CNS): > 55.6 µM; TGI (A549 NSCLC): 37.1 µM; TGI (UACC-62 melanoma): 36.8 µM; TGI (K-562 leukemia): > 75 µM; TGI (BT-549 breast): > 75 µM; TGI (LOX IMVI melanoma): 8.75 µM; TGI (SR leukemia): > 60.8 µM; TGI (UO-31 renal): 37.4 µM; TGI (HCT-116 colon): > 32.8 µM; TGI (MOLT-4 leukemia): > 68 µM; TGI (HOP-92 NSCLC): 36.8 µM; TGI (CCRF-CEM leukemia): > 47.5 µM; TGI (NCI-H23 lung): > 42.6 µM; TGI (DU-145 prostate): > 75 µM; TGI (OVCAR-8 ovarian): > 59.5 µM; TGI (HCT-15 colon): > 62.3 µM; TGI (SF-268 CNS): 44.4 µM; TGI (MALME-3M melanoma): 33.8 µM; TGI (COLO 205 colon): 35.6 µM; TGI (RXF 393 renal): 41.4 µM; TGI (OVCAR-3 ovarian): > 55.1 µM; TGI (SK-MEL-28 melanoma): > 72 µM; TGI (SK-MEL-5 melanoma): 17.6 µM; TGI (IGROV1 ovarian): 31 µM; TGI (SF-539 CNS): > 75 µM; TGI (HT29 colon): > 48.8 µM; TGI (PC-3 prostate): > 57.7 µM; TGI (CAKI-1 renal): 18.1 µM; TGI (MDA-MB-435): 17.2 µM; TGI (MDA-N): 24.2 µM; TGI (786-0 renal): 26.7 µM; TGI (MCF7 breast): > 40.2 µM; TGI (SNB-19 CNS): > 75 µM; TGI (SNB-75 CNS): > 75 µM; TGI (TK-10 renal): > 49 µM; TGI (NCI/ADR-RES ovarian): > 75 µM; TGI (KM12 colon): 20.1 µM; TGI (EKVX NSCLC): 35.9 µM; TGI (SK-MEL-2 melanoma): 37.1 µM; TGI (SK-OV-3 ovarian): > 75 µM; TGI (HL-60(TB) leukemia): 43.6 µM; TGI (A498 renal): 74.4 µM; TGI (SW-620 colon): > 52.9 µM; TGI (NCI-H460 lung): > 75 µM; TGI (M14 melanoma): > 38.3 µM; TGI (UACC-257 melanoma): > 63.4 µM

From PubChem BioAssay (NCI)
